Values of other authors as cited in patent US6415234B1, “Designing inhibitors for glycosyltransferases” (Glyco Design Inc., priority 1998, dated 2002).

Conditions: polarised continuum model

solvation free energy in water: -195.8 kcal/mol
SMILES: O=P(O)(O)OP(=O)(O)O [pyrophosphate dianion]
